Measurements from US20180344696A1, “SYNERGISTIC COMBINATION OF PYRROLIDONE CARBOXYLIC ACID AND/OR SALTS THEREOF AND HYALURONIC ACID AND/OR SALTS THEREOF, FOR USE IN THE TREATMENT AND/OR PREVENTION OF DRYNESS AND IRRITATION OF THE MUCOSAE, AND RELATED PHARMACEUTICAL FORMULATIONS” (LABORATORI BALDACCI S.P.A., priority 2015, published 2018).

How the values were obtained:
[1] = Hygroscopic test according to Farmacopea Ufficiale Italiana (FUI) XII; type: physicochemical; conditions: 5.00 g dried sample, 25° C., 24 hours
Method: The determination of hygroscopicity of the combination of PCA and hyaluronic acid was performed, a test related to the hydration capability of a compound or mixture of compounds, to evaluate the synergism of the combination of PCA and hyaluronic acid for use in the treatment and/or prevention of dryness and irritation of the mucosae. […] At the end of the procedure, the contained was closed with its lid and weighed again (m3).

[2] = Determination of PCA permanence on the nasal mucosa (HPLC recovery after applying gel); type: in vivo, human
Method: The samples were taken at various time points after administration, in order to accurately collect all the material present on the mucosa. After restoring to a certain volume of water (20 ml), the suspension obtained was filtered, and then 20 μl were injected into a chromatograph for quantitative analysis. A Waters liquid chromatograph with the following parameters was used: • Column: μBondapack C18 • Mobile phase: 0.1 M phosphoric acid at pH 3 with sodium hydroxide. • Flow: 1.5 ml/min • Detector: Spectrophotometer at 210 nm

[3] = Permanence of PCA in mucosal tissue after topical application (general statements); type: in vivo

Row | Result (hygroscopicity class) [1] | Water adsorption (%) (average of the triplicate) [1] | Water adsorption (g) (average of the triplicate) [1] | Final Weight ([1]; desiccator with saturated ammonium chloride or ammonium sulfate solution) | PCA percentage present in the nasal mucosa, % of recovery based on the standard ([2]; T = 0 after administration, 100 mg gel of Example 2 (1% PCA, 0.05% hyaluronic acid) on nasal mucosa) | PCA percentage present in the nasal mucosa, % of recovery based on the standard ([2]; T = 60 after administration, 100 mg gel of Example 2 on nasal mucosa) | PCA percentage present in the nasal mucosa, % of recovery based on the standard ([2]; T = 120 after administration, 100 mg gel of Example 2 on nasal mucosa) | PCA percentage present in the nasal mucosa, % of recovery based on the standard ([2]; T = 180 after administration, 100 mg gel of Example 2 on nasal mucosa) | Time PCA is present on the nasal mucosa after application ([2]; gel formulation from Example 2 on the nasal mucosa) | Administered amount of PCA identified in mucosal tissues ([3]; 4 hours after a topical application of the formulations of the invention) | Time PCA remains in the mucosae ([3]; after topical application) | Compound
1 | hygroscopic | 6.00% | 0.30 g | 5.30 ± 0.05 g | – | – | – | – | – | – | – | Hyaluronic acid [100% HA]
2 | – | – | – | – | 95% n = 1 | 80% n = 2 | 78% n = 2 | 70% n = 3 | ≥ 4 h | approximately 80% | > 4 h | O=C1CCC(C(=O)O)N1 (centres unmarked) [PCA, Pyrrolidone carboxylic acid]
